Measured values taken from US20230399314A1, “CD73 INHIBITOR AND USE THEREOF” (WUHAN HUMANWELL INNOVATIVE DRUG RESEARCH AND DEVELOPMENT …, priority 2020, published 2023).

Key:
[1] = Pharmacokinetic test on mice; format: in vivo, male ICR mice; settings: for Vd: read-out: Vz; for pharmacokinetic properties compared to the reference compounds: mice
Description: (§1) In a pharmacokinetic test on mice, male ICR mice of 20 g to 25 g were used and fasted overnight. 3 mice were selected for orally intragastric administration (10 mg/kg). Before administration, and 15 min, 30 min, 1 h, 2 h, 4 h, 8 h, and 24 h after administration, blood was sampled from each mouse. Another 3 mice were selected for intravenous injection administration (3 mg/kg), and before administration, and 15 min, 30 min, 1 h, 2 h, 4 h, 8 h, and 24 h after administration, blood was sampled from each mouse. The blood sample was centrifuged at 6,800 g and 2 to 8° C. for 6 min, and plasma was collected and stored at −80° C. The plasma of each time point was vortex-mixed for 1 min with an acetonitrile solution containing the internal standard with a volume 3-5 times that of the plasma of each time point, and centrifuged at 13,000 rpm and 4° C. for 10 min, a supernatant was collected and mixed with water with a volume 3 times that of the supernatant, and an appropriate amount of the mixed solution was used for LC-MS/MS analysis. The main pharmacokinetic parameters were analyzed by using a WinNonlin 7.0 non-compartmental model.

[2] = Pharmacokinetic test on dogs; format: in vivo, male Beagle dogs; settings: for AUC(0-t) / Cmax / Tmax / half-life / clearance / Vd: male, Beagle, plasma, dog; for Vd: read-out: Vz
Description: as §1
In a pharmacokinetic test on dogs, male Beagle dogs of 8 to 10 kg were used and fasted overnight. 3 Beagle dogs were selected for orally intragastric administration (5 mg/kg). Another 3 Beagle dogs were selected for intravenous injection administration (1 mg/kg). Other operations were the same as the pharmacokinetic test on mice.

Human-CD73 enzyme = Human-CD73 enzyme (Homo sapiens (Human), UniProt P21589); test: In vitro inhibitory activity to recombinant human CD73 enzyme (ATP-GLO); format: biochemical; settings: Human-CD73 0.1 μg/mL, AMP 100 μM
Human-CD73 enzyme, sequence (P21589 27-574): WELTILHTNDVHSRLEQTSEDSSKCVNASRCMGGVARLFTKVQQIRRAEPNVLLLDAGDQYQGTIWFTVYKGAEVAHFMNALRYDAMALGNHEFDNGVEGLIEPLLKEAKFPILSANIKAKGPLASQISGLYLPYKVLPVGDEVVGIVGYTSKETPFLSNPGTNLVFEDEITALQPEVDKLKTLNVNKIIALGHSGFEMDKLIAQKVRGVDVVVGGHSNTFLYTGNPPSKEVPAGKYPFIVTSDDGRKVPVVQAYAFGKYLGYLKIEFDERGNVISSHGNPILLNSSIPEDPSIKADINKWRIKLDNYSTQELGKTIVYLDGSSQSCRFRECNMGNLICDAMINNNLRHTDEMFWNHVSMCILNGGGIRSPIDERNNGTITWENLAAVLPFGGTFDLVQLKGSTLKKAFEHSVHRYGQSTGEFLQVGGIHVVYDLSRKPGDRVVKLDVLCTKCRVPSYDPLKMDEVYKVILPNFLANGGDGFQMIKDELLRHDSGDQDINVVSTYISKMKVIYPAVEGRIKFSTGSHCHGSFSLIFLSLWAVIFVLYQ
Description: Human-CD73 (Novoprotein; C446) was diluted with Tris-MgCl2 buffer to form a stock solution (3×), which was placed in a 96-well plate according to 20 μL/well to obtain a final concentration of 0.1 μg/mL. The compound was diluted with Tris-MgCl2 buffer to form a stock solution (3×) of an appropriate concentration gradient, the compound solution was added to the above 96-well plate according to 20 μL/well and uniformly mixed with the Human-CD73 solution, and the mixture was incubated at the room temperature for 30 min. Meanwhile, a positive reference group (without the compound) and a negative reference group (without CD73) were set. AMP (Sigma; A1752-5G) was diluted with Tris-MgCl2 buffer to form a stock solution (3×), which was added to the above 96-well plate according to 20 μL/well to obtain a final concentration of 100 μM, and the mixture was uniformly mixed and incubated at 37° C. for 60 min; ATP (Sigma; A7699-1G) was diluted with Tris-MgCl2 buffer to form a stock solution (7×), which was added to the above 96-well plate according to 10 μL/well to obtain a final concentration of 100 μM, and the mixture was uniformly mixed, incubated for 5 min, and tested by using an ATP-GLO kit (Promega; G7573).
Human-CD73 inhibition rates of the compound at different concentrations were calculated according to the following formula, the concentration of the compound was taken as the X-axis, the inhibition rate was taken as the Y-axis, and an IC50 value of the compound in inhibiting Human-CD73 was calculated by using Prism software.

Human CD4+ T cells = test: Relieving AMP-induced proliferation inhibition of human CD4+ T cells (CCK8); format: cell-based; settings: AMP 0.3 mM, day 5
Description: On day 1 of the experiment, CD4^+ T cells (Allcells Shanghai, PB009-2F-C) were thawed, and inoculated into two replicate wells according to 3×10^4 cells/well and 50 μL/well. The compound was diluted with a complete medium to form a stock solution (4×) of an appropriate concentration gradient, the compound solution was added to the above cells according to 50 μL/well, and the mixture was pre-incubated at 37° C. for 30 min. […] Meanwhile, a positive reference group (Human CD4^+ T+IL-2+CD3/CD28 beads) and a negative reference group (Human CD4^+ T+IL-2+CD3/CD28 beads+AMP) were set. AMP (Sigma; A1752-5G) was diluted with a complete medium to form an AMP solution (4×), the AMP solution was added to the above cells according to 50 μL/well, the final concentration was 0.3 mM, and the mixture was incubated at 37° C. On day 3 of the experiment, the AMP solution was added to the above plate according to 20 μL/well, and the final concentration was 0.3 mM. On day 5, the proliferation of the cells was detected by using a CCK8 kit (DojinDO; CK04).
Inhibition rates of the compound at different concentrations in relieving AMP-induced proliferation inhibition of CD4^+ T cells were calculated according to the following formula, the concentration of the compound was taken as the X-axis, the inhibition rate was taken as the Y-axis, and an EC50 value of the compound in relieving the AMP-induced proliferation inhibition of CD4^+ T cells was calculated by using Prism software.

[3] = target: CD73 bound to the surfaces of A375 cells (Homo sapiens (Human), UniProt P21589); test: Inhibitory activity to CD73 enzyme bound to the surfaces of human melanoma A375 cells; format: cell-based; settings: AMP 200 μM, 16 h
CD73 bound to the surfaces of A375 cells, sequence (P21589 27-574): as above
Description: The compound was diluted with serum-free DMEM to form a stock solution (5×) of an appropriate concentration gradient, the compound solution was added to the cells in the above 96-well plate according to 20 μL/well, and the mixture was placed in an incubator and pre-incubated for 30 min.
A375-bound CD73 inhibition rates of the compound at different concentrations were calculated according to the following formula, the concentration of the compound was taken as the X-axis, the inhibition rate was taken as the Y-axis, and an IC50 value of the compound in inhibiting A375-bound CD73 was calculated by using Prism software.

A375 melanoma = test: In vivo efficacy on A375 melanoma (PBMC + A375 cells in NCG mice); settings: anti PD-1 10 mg/kg alone
Description: A375 cells in logarithmic growth phase were collected, cultured in Mitomycin C for 2 h, and washed three times with PBS. After 5 days of co-culture of PBMC and A375 cells, PBMC and freshly digested A375 cells were collected, 5×10^5 PBMC and 4×10^6 A375 cells were inoculated subcutaneously on the right side of NCG mice according to 0.2 mL/mouse (containing 50% Matrigel). After inoculation, the mice were randomly divided into a model group and an administration group according to body weight of the mice, tumor size and animal weight were measured and recorded before and during administration, and tumor sizes of the model group and the administration group were compared after treatment to determine the efficacy.

[4] = Plasma protein binding by equilibrium dialysis, human plasma; format: in vitro ADME; settings: 37° C.
Description: (§2) Plasma protein binding rates of the compounds were detected by equilibrium dialysis (HTDialysis, HTD 96b). The compound was diluted with DMSO to form a 0.5 mM stock solution, and the stock solution was diluted 25 times with a 0.05 M sodium phosphate buffer to form a 20 μM working solution. Plasma was placed in a new 96-well plate according to 380 μL/well, then the working solution was added to and uniformly mixed with the plasma according to 20 μL/well, the final concentration of the compound was 1 μM, and each well contained 0.2% DMSO.
(§3) 100 μL of 0.05 M sodium phosphate buffer was added to a receiving side of each dialysis chamber (HTD 96b), and 100 μL of plasma containing the compound was added to a supply side. The dialysis apparatus was closed with a plastic lid, and incubated with shaking at 37° C. for 5 h.
(§4) After the incubation was completed, 25 μL of sample was collected respectively from the supply side and the receiving side of the dialysis chamber, and placed in a new 96-well plate, an equal volume of blank plasma was added to and uniformly mixed with each sample on the supply side, an equal volume of 0.05 M sodium phosphate buffer was added to and uniformly mixed with each sample on the receiving side. 200 μL of acetonitrile solution containing the internal standard was added to each well, the 96-well plate was vortex-shaken at 600 rpm for 10 min, and centrifuged at 5,594 g for 15 min (Thermo Multifuge×3R), 50 μL of supernatant was transferred to a new 96-well plate, and the sample was mixed with 50 μL of ultrapure water and subjected to LC-MS/MS analysis.
(§5) A plasma protein binding rate and a fraction unbound in plasma were calculated according to the following formulas:
(§6) % binding rate=100×([supply side concentration]5h−[receiving side concentration]5h)/[supply side concentration]5h; and
(§7) % fraction unbound in plasma=100−% binding rate.

[5] = Plasma protein binding by equilibrium dialysis, mouse plasma; format: in vitro ADME; settings: 37° C.
Description: as §2, §3, §4, §5, §6, §7

[6] = Plasma protein binding by equilibrium dialysis, canine plasma; format: in vitro ADME; settings: dog, 37° C.
Description: as §2, §3, §4, §5, §6, §7

[7] = male, ICR, plasma, po, mouse, orally intragastric 10 mg/kg
[8] = male, ICR, plasma, po, mouse, orally intragastric 10 mg/kg, read-out: AUC0-t
[9] = male, ICR, plasma, po, mouse, orally intragastric 10 mg/kg, read-out: Cmax
[10] = male, ICR, plasma, po, mouse, orally intragastric 10 mg/kg, read-out: Tmax
[11] = male, ICR, plasma, mouse, intravenous injection 3 mg/kg
[12] = male, ICR, plasma, mouse, intravenous injection 3 mg/kg, read-out: AUC0-t
[13] = po, orally intragastric 5 mg/kg
[14] = mouse, orally intragastric 10 mg/kg

| Molecule | half-life [1, 7] | AUC(0-t) [1, 8] | Cmax [1, 9] | Tmax [1, 10] | clearance [1, 11] | half-life [1, 11] | AUC(0-t) [1, 12] | Vd [1, 11] | pharmacokinetic properties compared to the reference compounds [1] | AUC(0-t) [2, 13] | Cmax [2, 13] | Tmax [2, 13] | half-life [2, 13] | AUC(0-t) ([2]; intravenous injection 1 mg/kg) | clearance ([2]; intravenous injection 1 mg/kg) | half-life ([2]; intravenous injection 1 mg/kg) | Vd ([2]; intravenous injection 1 mg/kg) | IC50 (Human-CD73 enzyme) | EC50 (Human CD4+ T cells; Homo sapiens, 120 h) | IC50 [3] | further results |
| --- | --- | --- | --- | --- | --- | --- | --- | --- | --- | --- | --- | --- | --- | --- | --- | --- | --- | --- | --- | --- | --- |
| O=c1[nH]cc(-c2cc([C@@H]3C[C@H]3C(F)(F)F)c(Cl)nn2)c(=O)[nH]1 [Compound 4, 5-(6-chloro-5-((1R,2R)-2-(trifluoromethyl)cyclopropyl)pyridazin-3-yl)pyrimidine-2,4(1H,3H)-dione] | 2.85 h | 185000 ng·h/mL | 16100 ng/mL | 3 h | 3.33 mL/min/kg | 3.68 h | 15200 ng·h/mL | 1.05 L/kg | significantly improved | 65700 ng·h/mL | 7550 ng/mL | 1.17 h | 4.13 h | 5810 ng·h/mL | 3 mL/min/kg | 3.63 h | 0.95 L/kg | 58.4 nM | 1070 nM | 134 nM | exposure compared to the reference compounds ([2]; dogs): much higher |
| O=c1[nH]cc(-c2cc([C@H]3C[C@@H]3C(F)(F)F)c(Cl)nn2)c(=O)[nH]1 [Compound 3, 5-(6-chloro-5-((1S,2S)-2-(trifluoromethyl)cyclopropyl)pyridazin-3-yl)pyrimidine-2,4(1H,3H)-dione] | 2.7 h | 107000 ng·h/mL | 12100 ng/mL | 0.83 h | 3.67 mL/min/kg | 3.72 h | 13800 ng·h/mL | 1.17 L/kg | significantly improved | – | – | – | – | – | – | – | – | – | 111 nM | 26.8 nM | – |
| O=c1[nH]cc(-c2cc([C@H]3C[C@@H]3CC(F)(F)F)c(Cl)nn2)c(=O)[nH]1 [Compound 9, 5-(6-chloro-5-((1S,2R)-2-(2,2,2-trifluoroethyl)cyclopropyl)pyridazin-3-yl)pyrimidine-2,4(1H,3H)-dione] | – | – | – | – | – | – | – | – | significantly improved | – | – | – | – | – | – | – | – | 8.17 nM | – | 5.56 nM | AUC(0-t) [1, 14]: 65441 ng·h/mL; Cmax [1, 14]: 6601.90 ng/mL; T1/2 [1, 14]: 4.87 h; Tmax [1, 14]: 1.17 h; EC50 (Human CD4+ T cells): 32.6 nM |
| Toripalimab [anti PD-1] | – | – | – | – | – | – | – | – | – | – | – | – | – | – | – | – | – | – | – | – | % TGI (A375 melanoma): 25.08%; Mean ± SEM (tumor size) (A375 melanoma; in mm³ (unit assumed)): 1472 ± 194.9 |
| O=c1[nH]cc(-c2cc([C@H]3C[C@@H]3C(F)F)c(Cl)nn2)c(=O)[nH]1 [Reference compound 2, 5-(6-chloro-5-((1S,2S)-2-(difluoromethyl)cyclopropyl)pyridazin-3-yl)pyrimidine-2,4(1H,3H)-dione, reference compound] | 1.09 h | 5380 ng·h/mL | 4540 ng/mL | 0.42 h | 22 mL/min/kg | 1.25 h | 2360 ng·h/mL | 2.4 L/kg | – | 9000 ng·h/mL | 3620 ng/mL | 0.5 h | 3.3 h | 1560 ng·h/mL | 10.8 mL/min/kg | 1.37 h | 1.33 L/kg | 16.8 nM | 93.7 nM | 67.3 nM | fraction unbound at 5 h, 1 μM [4]: 0.098; fraction unbound at 5 h, 1 μM [5]: 0.261; fraction unbound at 5 h, 1 μM [6]: 0.177 |
